Source: patent US9210927B2, “Pesticidal compositions and processes related thereto” (Dow AgroSciences LLC, priority 2013, dated 2015)
Where two headings read alike, the source gives them in different places.

Legend:
BAW (Spodoptera exigua) = experiment: Bioassays on Beet Armyworm (BAW), 128-well diet tray assay; type: in vivo; conditions: for pest or weed control at 50 µg/cm2: Spodoptera exigua, 168 h, read-out: BAW Rating
Protocol: (§1) Bioassays on Beet Armyworm (“BAW”) and Corn Earworm (“CEW”) and Cabbage Looper (“CL”)
(§2) Certain molecules disclosed in this document were tested against BAW and CEW and CL using procedures described in the following examples. In the reporting of the results, the “BAW & CEW & CL Rating Table” was used (See Table Section).
Bioassays on BAW (Spodoptera exigua)
Bioassays on BAW were conducted using a 128-well diet tray assay. one to five second instar BAW larvae were placed in each well (3 mL) of the diet tray that had been previously filled with 1 mL of artificial diet to which 50 μg/cm^2 of the test compound (dissolved in 50 μL of 90:10 acetone-water mixture) had been applied (to each of eight wells) and then allowed to dry. Trays were covered with a clear self-adhesive cover, and held at 25° C., 14:10 light-dark for five to seven days. Percent mortality was recorded for the larvae in each well; activity in the eight wells was then averaged. The results are indicated in the table entitled “Table 3: Assay Results” (See Table Section).

CEW (Helicoverpa zea) = experiment: Bioassays on Corn Earworm (CEW), 128-well diet tray assay; type: in vivo; conditions: for pest or weed control at 50 µg/cm2: Helicoverpa zea, 168 h, read-out: CEW Rating
Protocol: as §1, §2
Bioassays on CEW (Helicoverpa zea)
Bioassays on CEW were conducted using a 128-well diet tray assay. one to five second instar CEW larvae were placed in each well (3 mL) of the diet tray that had been previously filled with 1 mL of artificial diet to which 50 μg/cm^2 of the test compound (dissolved in 50 μL of 90:10 acetone-water mixture) had been applied (to each of eight wells) and then allowed to dry. Trays were covered with a clear self-adhesive cover, and held at 25° C., 14:10 light-dark for five to seven days. Percent mortality was recorded for the larvae in each well; activity in the eight wells was then averaged. The results are indicated in the table entitled “Table 3: Assay Results” (See Table Section).

[1] = percent mortality, second instar larvae, 50 μg/cm^2 on artificial diet, five to seven days, 25° C.

Structure (SMILES)	pest or weed control at 50 µg/cm2 (BAW (Spodoptera exigua)) [%]	pest or weed control at 50 µg/cm2 (CEW (Helicoverpa zea); [1]) [%]	also measured
Cc1cc(/C=C/C(c2cc(Cl)cc(Cl)c2)C(F)(F)F)ccc1C(=O)NCc1ccccc1 (stereo not drawn) [AC11]	50 to 100	50 to 100	
Cc1cc(/C=C/C(c2cc(Cl)cc(Cl)c2)C(F)(F)F)ccc1C(=O)NCc1ccccn1 (stereo not drawn) [AC12]	50 to 100	50 to 100	
Cc1cc(/C=C/C(c2cc(Cl)cc(Cl)c2)C(F)(F)F)ccc1C(=O)NC(C)(C)c1ccccn1 (stereo not drawn) [AC16]	50 to 100	50 to 100	
Cc1cc(/C=C/C(c2cc(Cl)cc(Cl)c2)C(F)(F)F)ccc1C(=O)NCc1ccoc1 (stereo not drawn) [AC20]	50 to 100	50 to 100	
Cc1cc(/C=C/C(c2cc(Cl)c(Cl)c(Cl)c2)C(F)(F)F)ccc1C(=O)NCc1ccc(Cl)nc1 (stereo not drawn) [AC22]	50 to 100	50 to 100	
Cc1cc(/C=C/C(c2cc(Cl)cc(Cl)c2)C(F)(F)F)ccc1C(=O)NCC(=O)NCC(F)(F)F (stereo not drawn) [AC24]			BAW Rating (BAW (Spodoptera exigua); [1]): A (50-100); CEW Rating (CEW (Helicoverpa zea); [1]): A (50-100)
O=C(NC1CS(=O)(=O)C1)c1ccc(/C=C/C(c2cc(Cl)c(Cl)c(Cl)c2)C(F)(F)F)cc1C(F)(F)F (stereo not drawn) [AC35]	50 to 100	50 to 100	
Cc1cc(/C=C/C(c2cc(Cl)c(F)c(Cl)c2)C(F)(F)F)ccc1C(=O)NCc1ccc(Cl)nc1 (stereo not drawn) [AC38]	50 to 100	50 to 100	
Cc1cc(/C=C/C(c2cc(Cl)cc(Cl)c2)C(F)(F)F)ccc1C(=O)NCc1cncnc1 (stereo not drawn) [AC39, 4-((E)-3-(3,5-Dichlorophenyl)-4,4,4-trifluorobut-1-enyl)-2-methyl-N-((pyrimidin-5-yl)methyl)benzamide]	50 to 100	50 to 100	
Cc1cc(/C=C/C(c2cc(Cl)cc(Cl)c2)C(F)(F)F)ccc1C(=O)NCC(=O)NC1CC1 (stereo not drawn) [AC40]	50 to 100	50 to 100	
Cc1cc(/C=C/C(c2cc(Cl)cc(Cl)c2)C(F)(F)F)ccc1C(=O)NCC(=O)NC1CSC1 (stereo not drawn) [AC41]	50 to 100		
Cc1cc(/C=C/C(c2cc(Cl)cc(Cl)c2)C(F)(F)F)ccc1C(=O)NCc1nc2ccccc2s1 (stereo not drawn) [AC42]	50 to 100		
Cc1cc(/C=C/C(c2cc(Cl)cc(Cl)c2)C(F)(F)F)ccc1C(=O)NN(C)c1ccccc1F (stereo not drawn) [AC45]	50 to 100	50 to 100	
O=C(NCc1ccc(Cl)cn1)c1ccc(/C=C/C(c2cc(Cl)cc(Cl)c2)C(F)(F)F)cc1Br (stereo not drawn) [AC46]	50 to 100	50 to 100	
O=C(CNC(=O)c1ccc(/C=C/C(c2cc(Cl)cc(Cl)c2)C(F)(F)F)cc1F)NCC(F)(F)F (stereo not drawn) [AC62]	50 to 100	50 to 100	
O=C(CNC(=O)c1ccc(/C=C/C(c2cc(Cl)c(F)c(Cl)c2)C(F)(F)F)cc1F)NCC(F)(F)F (stereo not drawn) [AC68]	50 to 100	50 to 100	
Cc1cc(/C=C/C(c2cc(Cl)cc(Cl)c2)C(F)(F)F)ccc1C(=O)NCC(=O)NC1CS(=O)(=O)C1 (stereo not drawn) [AC81]	50 to 100		
O=C(NC1CS(=O)(=O)C1)c1ccc(/C=C/C(c2cc(Cl)c(F)c(Cl)c2)C(F)(F)F)cc1F (stereo not drawn) [AC84]	50 to 100	50 to 100	
CCc1cc(/C=C/C(c2cc(Cl)c(F)c(Cl)c2)C(F)(F)F)ccc1C(=O)NC1CS(=O)(=O)C1 (stereo not drawn) [AC86]	50 to 100	50 to 100	
FC(F)(F)CNC(=S)CNC(=S)c1ccc(/C=C/C(c2cc(Cl)c(Cl)c(Cl)c2)C(F)(F)F)cc1Br (stereo not drawn) [AC90, (E)-2-Bromo-N-(2-thioxo-2-((2,2,2-trifluoroethyl)amino)ethyl)-4-(4,4,4-trifluoro-3-(3,4,5-trichlorophenyl)but-1-en-1-yl)benzothioamide]	50 to 100	50 to 100	
O=C(CNC(=S)c1ccc(/C=C/C(c2cc(Cl)c(Cl)c(Cl)c2)C(F)(F)F)cc1Br)NCC(F)(F)F (stereo not drawn) [AC91, (E)-2-(2-Bromo-4-(4,4,4-trifluoro-3-(3,4,5-trichlorophenyl)but-1-en-1-yl)phenylthioamido)-N-(2,2,2-trifluoroethyl)acetamide]	50 to 100	50 to 100	
O=C(NCC(=S)NCC(F)(F)F)c1ccc(/C=C/C(c2cc(Cl)c(Cl)c(Cl)c2)C(F)(F)F)cc1Br (stereo not drawn) [AC92, (E)-2-Bromo-N-(2-thioxo-2-((2,2,2-trifluoroethyl)amino)ethyl)-4-(4,4,4-trifluoro-3-(3,4,5-trichlorophenyl)but-1-en-1-yl)benzamide]	50 to 100	50 to 100	

Structure (SMILES)	pest or weed control at 50 µg/cm2 (BAW (Spodoptera exigua)) [%]	pest or weed control at 50 µg/cm2 (CEW (Helicoverpa zea); [1]) [%]	also measured
Cc1cc(/C=C\C(c2cc(Cl)cc(Cl)c2)C(F)(F)F)ccc1C(=O)NCC(=O)NC1CC1 (stereo not drawn) [AC93]	50 to 100		
O=C(CNC(=O)c1ccc(/C=C\C(c2cc(Cl)c(Cl)c(Cl)c2)C(F)(F)F)cc1Br)NCC(F)(F)F (stereo not drawn) [AC95, (Z)-2-Bromo-N-(2-oxo-2-((2,2,2-trifluoroethyl)amino)ethyl)-4-(4,4,4-trifluoro-3-(3,4,5-trichlorophenyl)but-1-en-1-yl)benzamide]	50 to 100	50 to 100	
O=C(CNC(=O)c1ccc(/C=C/C(c2cc(Cl)c(F)c(Cl)c2)C(F)(F)F)cc1[N+](=O)[O-])NCC(F)(F)F (stereo not drawn) [AC98]	50 to 100	50 to 100	
O=C(CNC(=O)c1ccc(/C=C/C(c2ccc(F)c(Cl)c2)C(F)(F)F)cc1Br)NCC(F)(F)F (stereo not drawn) [AC99]	50 to 100	50 to 100	
O=C(CNC(=O)c1ccc(/C=C/C(c2cc(F)c(Cl)c(F)c2)C(F)(F)F)cc1Br)NCC(F)(F)F (stereo not drawn) [AC102]		50 to 100	
O=C(NC1CCN(C2COC2)CC1)c1ccc(/C=C/C(c2cc(Cl)c(Cl)c(Cl)c2)C(F)(F)F)cc1Br (stereo not drawn) [AC108, (E)-2-Bromo-N-(1-(oxetan-3-yl)piperidin-4-yl)-4-(4,4,4-trifluoro-3-(3,4,5-trichlorophenyl)but-1-en-1-yl)benzamide]	0 to 50		
Cc1cc(/C=C/C(c2cc(Cl)cc(Cl)c2)C(F)(F)F)ccc1C(=O)NCC1CCCO1 (stereo not drawn) [AC118]	50 to 100		
O=C(Cn1ncc2cc(/C=C/C(c3cc(Cl)c(F)c(Cl)c3)C(F)(F)F)ccc2c1=O)NCC(F)(F)F (stereo not drawn) [BC14, (E)-2-(6-(3-(3,5-Dichloro-4-fluorophenyl)-4,4,4-trifluorobut-1-en-1-yl)-1-oxophthalazin-2(1H)-yl)-N-(2,2,2-trifluoroethyl)acetamide]	50 to 100		
O=C(Cc1ccc(Cl)nc1)NCc1ccc(/C=C/C(c2cc(Cl)c(Cl)c(Cl)c2)C(F)(F)F)cc1Cl (stereo not drawn) [CC14]	50 to 100		
CCNC(=O)NCc1ccc(/C=C/C(c2cc(Cl)cc(Cl)c2)C(F)(F)F)cc1Cl (stereo not drawn) [CC31, (E)-1-(2-Chloro-4-(3-(3,5-dichlorophenyl)-4,4,4-trifluorobut-1-en-1-yl)benzyl)-3-ethylurea]	0 to 50		
O=C(NCc1ccc(/C=C/C(c2cc(Cl)c(Cl)c(Cl)c2)C(F)(F)F)cc1Cl)Oc1ccccc1Cl (stereo not drawn) [CC40]			pest or weed control at 50 µg/cm2 (CEW (Helicoverpa zea)): 50 to 100%
O=C(CC(F)(F)F)NCc1ccc(/C=C/C(c2cc(Cl)c(Cl)c(Cl)c2)C(F)(F)F)c2ccccc12 (stereo not drawn) [CC46, (E)-3,3,3-Trifluoro-N-((4-(4,4,4-trifluoro-3-(3,4,5-trichlorophenyl)but-1-en-1-yl)naphthalen-1-yl)methyl)propanamide]		50 to 100	
O=C(NOc1ccc(/C=C/C(c2cc(Cl)c(Cl)c(Cl)c2)C(F)(F)F)cc1)C1CC1 (stereo not drawn) [CC52, (E)-N-(4-(4,4,4-Trifluoro-3-(3,4,5-trichlorophenyl)but-1-en-1-yl)phenoxy)cyclopropanecarboxamide]	50 to 100		
FC(F)(F)C(/C=C/c1ccc(-n2cncn2)cc1)c1ccccc1 (stereo not drawn) [DC3]	0 to 50		
FC(F)(F)C(/C=C/c1ccc(-n2cncn2)cc1)c1ccc(Cl)cc1 (stereo not drawn) [DC4]	50 to 100		
Fc1ccc(C(/C=C/c2ccc(-n3cncn3)cc2)C(F)(F)F)cc1 (stereo not drawn) [DC7]	50 to 100		
Fc1cc(F)cc(C(/C=C/c2ccc(-n3cncn3)cc2)C(F)(F)F)c1 (stereo not drawn) [DC8]	50 to 100		
Cc1cc(C)cc(C(/C=C/c2ccc(-n3cncn3)cc2)C(F)(F)F)c1 (stereo not drawn) [DC11]	50 to 100		
COc1c(Cl)cc(C(/C=C/c2ccc(-n3cncn3)cc2)C(F)(F)F)cc1Cl (stereo not drawn) [DC20]	50 to 100		
Cc1ncnn1-c1ccc(/C=C/C(c2cc(Cl)cc(Cl)c2)C(F)(F)F)cc1 (stereo not drawn) [DC23]		50 to 100	
OCc1cc(/C=C/C(c2cc(Cl)cc(Cl)c2)C(F)(F)F)ccc1-n1cncn1 (stereo not drawn) [DC53]		50 to 100	
Cc1cc(-n2cncn2)ccc1/C=C/C(c1cc(Cl)cc(Cl)c1)C(F)(F)F (stereo not drawn) [DC65]		50 to 100	
